Test results from patent US10947196B2, “Beta adrenergic agonist and methods of using the same” (CURASEN THERAPEUTICS, INC., priority 2019, dated 2021).
Where two headings read alike, the source gives them in different places.

How the values were obtained:
Format in all cases: cell-based
β1-adrenergic receptor = β1-adrenergic receptor (Homo sapiens (Human), UniProt P08588); assay: cAMP Gs dynamic HTRF assay, β1 expressing CHO cells; conditions: B1-AR
In short: (§1)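 Intracellular cAMP quantified by Eu-donor/d2-acceptor HTRF after 30 min compound exposure at 37° C in stimulation buffer with IBMX. Concentrations ran 10 μM top, 5-fold steps, 10 points. Cell lines: 1321N1 astrocytoma and CHO expressing β1 or β2; EC50 via four-parameter fit, relative efficacy against isoproterenol.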

β2 adrenergic receptor = β2 adrenergic receptor (Homo sapiens (Human), UniProt P07550); assay: cAMP Gs dynamic HTRF assay, β2 expressing CHO cells; conditions: B2-AR
Sequence of β2 adrenergic receptor (P07550 whole entry, species assumed): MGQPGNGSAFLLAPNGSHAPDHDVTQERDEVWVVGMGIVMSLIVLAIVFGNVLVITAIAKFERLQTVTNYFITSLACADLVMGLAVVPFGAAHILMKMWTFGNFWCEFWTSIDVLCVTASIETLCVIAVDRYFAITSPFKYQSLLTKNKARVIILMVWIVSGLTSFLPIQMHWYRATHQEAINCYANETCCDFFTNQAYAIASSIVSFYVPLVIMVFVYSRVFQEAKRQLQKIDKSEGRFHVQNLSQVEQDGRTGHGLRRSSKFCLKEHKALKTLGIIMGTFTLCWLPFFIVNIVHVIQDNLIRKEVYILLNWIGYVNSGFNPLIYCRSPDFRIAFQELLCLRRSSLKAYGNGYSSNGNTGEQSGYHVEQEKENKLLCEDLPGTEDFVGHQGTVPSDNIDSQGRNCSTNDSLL
In short: as §1

B3-AR = B3-AR (Homo sapiens (Human), UniProt P13945); assay: cAMP potency assay, B3-AR expressing CHO-K1 cells; conditions: read-out: Average pEC50 [Receptor subtype: B3-AR, Cell type: CHO-K1] (converted)
Sequence of B3-AR (P13945 whole entry, species assumed): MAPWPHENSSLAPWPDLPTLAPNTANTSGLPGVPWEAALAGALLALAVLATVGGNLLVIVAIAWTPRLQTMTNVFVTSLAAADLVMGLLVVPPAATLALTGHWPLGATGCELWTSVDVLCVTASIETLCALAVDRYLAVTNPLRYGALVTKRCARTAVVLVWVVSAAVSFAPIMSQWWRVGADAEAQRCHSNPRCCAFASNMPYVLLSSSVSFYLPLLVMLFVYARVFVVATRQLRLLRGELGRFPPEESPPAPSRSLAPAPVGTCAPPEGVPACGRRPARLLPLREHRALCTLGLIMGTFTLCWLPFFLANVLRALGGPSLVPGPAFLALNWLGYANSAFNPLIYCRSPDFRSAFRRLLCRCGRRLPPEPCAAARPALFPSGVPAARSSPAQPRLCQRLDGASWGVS

[1] = target: β2 adrenergic receptors in human astrocytoma cells (1321N1) (Homo sapiens (Human), UniProt P07550); assay: cAMP HTRF assay in human astrocytoma cells (1321N1); conditions: Endogenous receptor; 1321N1 cells; read-out: Average pEC50 [Receptor subtype: Endogenous; Cell type: 1321N1] (converted)
Sequence of β2 adrenergic receptors in human astrocytoma cells (1321N1) (P07550 whole entry): as the sequence (P07550 whole entry, species assumed) above
In short: as §1

[2] = CHO-K1 (HitHunter), read-out: Average pEC50 [Receptor subtype: B1-AR, Cell type: CHO-K1 (HitHunter)] (converted)
[3] = CHO-K cells, read-out: Average EC50 [Receptor subtype: B1-AR, Cell type: CHO-K]
[4] = CHO-K1 (HitHunter), read-out: Average pEC50 [Receptor subtype: B2-AR, Cell type: CHO-K1 (HitHunter)] (converted)
[5] = CHO-K cells, read-out: Average EC50 [Receptor subtype: B2-AR, Cell type: CHO-K]

Sequence of β1-adrenergic receptor (P08588 whole entry, species assumed): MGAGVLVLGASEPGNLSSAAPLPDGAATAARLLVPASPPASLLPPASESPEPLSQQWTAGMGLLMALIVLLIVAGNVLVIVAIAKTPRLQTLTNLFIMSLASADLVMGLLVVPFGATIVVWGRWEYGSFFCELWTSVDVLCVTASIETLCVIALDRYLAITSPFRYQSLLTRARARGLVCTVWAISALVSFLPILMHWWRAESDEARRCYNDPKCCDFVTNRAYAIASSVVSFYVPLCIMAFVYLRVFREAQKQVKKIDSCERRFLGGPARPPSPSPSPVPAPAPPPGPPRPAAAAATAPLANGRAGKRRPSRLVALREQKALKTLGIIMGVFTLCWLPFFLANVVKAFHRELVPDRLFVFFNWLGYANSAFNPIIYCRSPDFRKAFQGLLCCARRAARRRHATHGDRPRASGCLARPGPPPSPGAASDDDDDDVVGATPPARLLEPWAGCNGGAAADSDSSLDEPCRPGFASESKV

SMILES | EC50 (β1-adrenergic receptor; [2]) [nM] | EC50 (β1-adrenergic receptor; [3]) [nM] | EC50 (β2 adrenergic receptor; [4]) [nM] | EC50 (β2 adrenergic receptor; [5]) [nM] | EC50 (B3-AR) [nM] | EC50 [1] [nM] | Average pEC50 [Receptor subtype: B1-AR; Cell type: CHO-K1 (HitHunter)] (β1-adrenergic receptor; CHO-K1 (HitHunter))
CCOc1cccc([C@@H](O)CNC(C)(C)C)n1 [Compound 03-177] | 10 to 100 | 10 to 100 | < 10 | < 10 | 100 to 1000 | < 10 | 
CC(C)Oc1cccc([C@@H](O)CNC(C)(C)C)n1 [Compound 03-179] |  | 100 to 1000 | < 10 | < 10 | 100 to 1000 | < 10 | C (C = <7-6)
COc1ccc(CC(C)(C)NC[C@H](O)c2cccc(C(F)(F)F)n2)cc1 [Compound 03-182] | 10 to 100 | 10 to 100 | < 10 | < 10 | 100 to 1000 | < 10 | 
CC(C)(COc1ccccc1)NC[C@H](O)c1cccc(C(F)(F)F)n1 [Compound 03-184] |  | 10 to 100 | 10 to 100 | 10 to 100 | 100 to 1000 | 10 to 100 | B (B = 8-7)
CC(C)(C)NCC(O)c1cncc(Cl)n1 (stereo not shown) [Compound 03-219] | 100 to 1000 |  | 100 to 1000 |  | 100 to 1000 | > 1000 | 
